Laboratory results: patent US20160136197A1, “Pharmaceutical Compositions Comprising a GPG Oligodeoxynucleotide and Cyclic Di-GMP” (INTERVET INTERNATIONAL B.V., priority 2013, published 2016)

Experiments:
human colon cancer cell = conditions: in vitro; cited from earlier work
[1] = test system: Mouse bone marrow dendritic cells; experiment: IL12 production by bone marrow dendritic cells, ELISA; format: cell-based; conditions: overnight incubation of 1.2×10^5 DCs; CpG 1 μg/ml, c-GMP 10 μg/ml, c-di-GMP 10 μg/ml
Procedure: (§1) Mouse bone marrow dendritic cells were cultured with granulocyte-macrophage colony-stimulating factor (GM-CSF) and harvested at day 7 of culture. 1.2×10^5 cells were exposed during overnight incubation to the following immunopotentiators: CpG 1668 1 μg/ml, c-GMP 10 μg/ml, c-di-GMP 10 μg/ml. Next, supernatant was carefully harvested and IL12 or type-I IFN production was determined. For IL12 an ELISA method was used according to the manufacturer's instructions (BD Biosciences). Type-I IFN was determined by a standard bioassay using L929 ISRE reporter cells.
(§2) Kaplan Meier survival curves were analyzed using a log rank test. Cytokine data was analyzed using ANOVA with a post-hoc Bonferroni test.
FIG. 3. Synergistic IL12 production by DCs upon combined treatment with c-di-GMP and CpG. Mouse bone marrow dendritic cells were cultured with GM-CSF and harvested at day 7 of culture. 1.2×10^5 cells were exposed during overnight incubation to the indicated immunopotentiators: CpG 1 μg/ml, c-GMP 10 μg/ml, c-di-GMP 10 μg/ml. Next, supernatant was harvested and IL12 production was determined by standard ELISA methods. Results are shown as means with sem, *=p<0.001. Similar results were obtained in three independent experiments.

[2] = test system: Mouse bone marrow dendritic cells; experiment: Type-I IFN production by bone marrow dendritic cells, bioassay using L929 ISRE reporter cells; format: cell-based; conditions: overnight incubation of 1.2×10^5 DCs; CpG 1 μg/ml, c-GMP 10 μg/ml, c-di-GMP 10 μg/ml
Procedure: as §1, §2
FIG. 2. Synergistic type I IFN production by DCs upon combined treatment with c-di-GMP and CpG. Mouse bone marrow dendritic cells were cultured with GM-CSF and harvested at day 7 of culture. 1.2×10^5 cells were exposed during overnight incubation to the indicated immmunopotentiators or combinations of immunopotentiators: CpG 1 μg/ml, c-GMP 10 μg/ml, c-di-GMP 10 μg/ml. Next, supernatant was harvested and type I IFN production was determined by a standard bioassay using L929 ISRE cells. Results are shown as means with sem, *=p<0.001 vs. all other bars. Similar results were obtained in three independent experiments.

B16F10 melanoma cells = experiment: Cryo ablation of established B16F10 tumors plus peri-tumoral immunopotentiator, re-challenge after 40 days, Kaplan-Meier survival; format: in vivo, C57BL/6n mice; conditions: cryo ablation combined with immunopotentiator; for survival rate after 60 days: 30 μg p.t. within 30 min. after ablation, re-challenge with 15*10^3 B16F10 cells s.c. 40 days after ablation; for protection from tumor outgrowth (re-challenge, Kaplan-Meier): re-challenge 40 days later, result in words
Procedure: C57BL/6n mice (6-8 weeks old) were purchased from Charles River Wiga (Sulzfeld, Germany) and maintained under specific pathogen-free barrier conditions at the Central Animal Laboratory (Nijmegen, The Netherlands). Drinking water and standard laboratory food pellets were provided ad libitum and mice were allowed to settle for at least 1 week before random assignment into specific treatment groups. The experiments were performed according to the guidelines for animal care of the Nijmegen Animal Experiments Committee.
The murine melanoma cell line B16F10 (ATCC) was cultured in complete medium (MEM, 5% fetal bovine serum (Greiner Bio-one), 100 U/ml penicillin G sodium and 100 μg/ml streptomycin (Pen/Strep), MEM sodium pyruvate (1 mM), NaHCO3, MEM vitamins, MEM non-essential amino acids (all from Gibco), 20 μM β-mercaptoethanol (β-ME)).
B16F10 melanoma cells were suspended in a mixture of PBS and Matrigel (2:1), and 0.5*10^6 cells in a total volume of 50 μl were injected s.c. at the right femur. When tumor diameters measured between 6-8 mm (generally at day 9-10) they were randomly assigned to treatment groups. Cryo ablation (Cryo) was performed under isoflurane/O2/N2O anesthesia using a liquid nitrogen cryo ablation system (CS76, Frigitronics, Shelton, Conn.) of which the tip is cooled by a continuous flow of circulating liquid nitrogen. During 2 treatment cycles of freezing and thawing the tumor was macroscopically frozen, while leaving surrounding healthy tissue intact. To monitor the induction of long-lasting tumor protection, mice were re-challenged with 15*10^3 B16F10 cells 40 days after cryo ablation. Re-challenges were injected in 100 μl PBS s.c. on the right flank. Mice were sacrificed when tumor volume exceeded 1000 mm^3 or when tumors brake through the skin barrier.
CpG 1668 (‘5-[…]-3’) with total phosphorothioate-modified backbone was purchased from Sigma Genosys (Haverhill, UK). C-di-GMP was synthesized as described by Spehr V, Warrass R, Höcherl K, Ilg T., in Appl. Biochem. Biotechnol. 2011 Oct;165(3-4):761-75. CpG and/or C-di-GMP were peri-tumorally injected in PBS (p.t., 30 μg divided over 2 injections of 20 μl lining the ablated tumor). All injections were done within 30 min. after ablation.
as §2
FIG. 1. Anti-tumor memory response following ablation combined with C-di-GMP and CpG. Established B16F10 tumors growing subcutaneously on the right femur were treated with cryo ablation alone, or combined with the indicated immunopotentiators Immunopotentiators ([…]) were injected in 40 μl PBS in the peri-tumoral area following the ablation. […]

Compound | effect on basal and GF-stimulated cancer cell proliferation (human colon cancer cell) | IL12 production (in words) [1] | type I IFN production [2] [U/ml] | survival rate after 60 days (B16F10 melanoma cells) | protection from tumor outgrowth (re-challenge, Kaplan-Meier) (B16F10 melanoma cells) | type I IFN production (in words) [2]
Nc1nc2c(ncn2C2OC3COP(=O)(O)OC4C(COP(=O)(O)OC3C2O)OC(n2cnc3c(=O)[nH]c(N)nc32)C4O)c(=O)[nH]1 (centres unmarked) [c-di-GMP, 3′,5′-cyclic diguanylic acid] | inhibitory effect | do not produce IL12 | < 50 | approx. 50% | increased protection from tumor outgrowth | –
Nc1nc2c(ncn2[C@@H]2O[C@@H]3COP(=O)(O)O[C@H]3[C@H]2O)c(=O)[nH]1 [c-GMP] | – | do not produce IL12 | – | – | – | no IFN or only modest amounts of IFN
5-TCCATGACGTTCCTGATGCT-3 (DNA, all phosphorothioate, methylation of C not given here) [CpG 1668, CpG ODN 20-mer, TLR9 agonist, purchased from Sigma Genosys] | – | modest level of IL12 production | – | approx. 50% | increased protection from tumor outgrowth | no IFN or only modest amounts of IFN
